In one assay the target is T1, CMKLR1 (Homo sapiens, UniProt Q99788).
T1 construct: expressed in transfected cells; host or cells: CHO-K1 cells expressing Gα-16 (CHO-Ga16-CMKLR1)
T1 sequence (Q99788 1-373): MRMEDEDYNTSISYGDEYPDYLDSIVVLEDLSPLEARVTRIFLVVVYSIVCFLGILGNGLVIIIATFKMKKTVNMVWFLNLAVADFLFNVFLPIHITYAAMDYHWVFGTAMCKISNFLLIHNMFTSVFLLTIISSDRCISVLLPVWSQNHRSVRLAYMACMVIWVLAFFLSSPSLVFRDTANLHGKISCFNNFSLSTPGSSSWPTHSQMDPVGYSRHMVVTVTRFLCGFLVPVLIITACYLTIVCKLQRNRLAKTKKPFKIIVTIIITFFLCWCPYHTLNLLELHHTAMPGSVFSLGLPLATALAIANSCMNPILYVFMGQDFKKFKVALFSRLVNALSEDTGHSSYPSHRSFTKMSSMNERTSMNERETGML
Briefly: Calcium mobilization assay (CHO-Ga16-CMKLR1 cells, chemerin-9 induced signal). As to conditions: Table 3, IC50 class, calcium signal induced by 2.5 nM chemerin-9. Type of assay: cell-based. As to the method:
To establish a CMKLR1 calcium mobilization cell evaluation system, CHO-K1 cells expressing Gα-16 were transfected with pcDNA3.1-derived human CMKLR1-expressing plasmids using Lipofectamine 2000 (Invitrogen, Waltham, Massachusetts, USA). […] The established cell line (CHO-Ga16-CMKLR1) was cultured in F-12 medium (Invitrogen) supplemented with 10% (v/v) fetal bovine serum (FBS; Invitrogen), 0.5 mg/mL geneticin, 0.2 mg/mL hygromycin B (Clontech), and 1% (v/v) antibiotic-antimycotic solution (Invitrogen) under 5% CO2 at 37°C.
100 µL/well was added to a 96-well plate (Corning) and incubated for 24 h. The buffer solution was prepared by adding 1 M HEPES solution to Hanks' Balanced Salt Solution (HBSS) (Invitrogen) and adjusting the pH to 7.4 by dropwise addition of 1 M NaOH.
The fluorescent dye solution was prepared using the buffer provided with the Calcium 5 Assay Kit (Molecular Devices). 40 µL/well of dye solution was added to each well and incubated at 37°C in a 5% CO2 atmosphere for 30 min. […] The final DMSO concentration was adjusted to 2%. 40 µL of each compound solution was added to the well and incubated for 30 min. […] Prism 5 software (GraphPad) was then used to obtain IC50 values for various compounds. IC50 values were derived based on concentration-response curves, and all experiments were repeated at least three times.
As for `C[C@@H](CC(=O)O)c1ccc(OCc2ccc3c(-c4cc(Cl)c(O)c(Cl)c4)nn(C4CCCC4)c3c2)cc1` [Compound 44, (S)-3-(4-((1-cyclopentyl-3-(3,5-dichloro-4-hydroxyphenyl)-1H-indazol-6-yl)methoxy)phenyl)butanoic acid], the IC50 was in the range of 0.1 to 1 µM.

On to `C[C@@H](CC(=O)O)c1ccc(OCc2ccc3c(-c4cc(F)c(O)cc4F)nn(C4CCCC4)c3c2)cc1` [Compound 45, (S)-3-(4-((1-cyclopentyl-3-(2,5-difluoro-4-hydroxyphenyl)-1H-indazol-6-yl)methoxy)phenyl)butanoic acid], for which the IC50 is 0.1 to 1 µM.

Turning to `C[C@@H](CC(=O)O)c1ccc(OCc2ccc3c(-c4cc(Cl)c(O)cc4Cl)nn(C4CCCC4)c3c2)cc1` [Compound 46, (S)-3-(4-((1-cyclopentyl-3-(2,5-dichloro-4-hydroxyphenyl)-1H-indazol-6-yl)methoxy)phenyl)butanoic acid], the IC50 lay within 0.1 to 1 µM.

For `C[C@@H](CC(=O)O)c1ccc(OCc2ccc3c(-c4cc(F)c(CO)c(F)c4)nn(C4CCCC4)c3c2)cc1` [Compound 47, (S)-3-(4-((1-cyclopentyl-3-(3,5-difluoro-4-(hydroxymethyl)phenyl)-1H-indazol-6-yl)methoxy)phenyl)butanoic acid], the IC50 is less than 0.1 µM.

As for `C[C@@H](CC(=O)O)c1ccc(OCc2ccc3c(-c4ccc(C(=O)O)cc4)nn(C4CCCC4)c3c2)cc1` [Compound 51, (S)-4-(6-((4-(1-carboxypropan-2-yl)phenoxy)methyl)-1-cyclopentyl-1H-indazol-3-yl)benzoic acid], the IC50 is 0.1 to 1 µM.

The assay is the same for the next values; noted with them: Table 4, IC50 class, calcium signal induced by 2.5 nM chemerin-9.
`C[C@@H](CC(=O)O)c1ccc(OCc2ccc3c(-c4ccc(C(=O)O)cc4F)nn(C4CCCC4)c3c2)cc1` [Compound 52, (S)-4-(6-((4-(1-carboxypropan-2-yl)phenoxy)methyl)-1-cyclopentyl-1H-indazol-3-yl)-3-fluorobenzoic acid]: the IC50 lay in the range of 0.1 to 1 µM.

As for `Cc1cc(-c2nn(C3CCCC3)c3cc(COc4ccc([C@@H](C)CC(=O)O)cc4)ccc23)cc(C)c1O` [Compound 53, (S)-3-(4-((1-cyclopentyl-3-(4-hydroxy-3,5-dimethylphenyl)-1H-indazol-6-yl)methoxy)phenyl)butanoic acid], the IC50 was 0.1 to 1 µM.

Consider `C[C@@H](CC(=O)O)c1ccc(OCc2ccc3c(-c4cccc(CO)c4)nn(C4CCCC4)c3c2)cc1` [Compound 54, (S)-3-(4-((1-cyclopentyl-3-(3-(hydroxymethyl)phenyl)-1H-indazol-6-yl)methoxy)phenyl)butanoic acid], for which the IC50 was more than 1 µM.

With `C[C@@H](CC(=O)O)c1ccc(OCc2ccc3c(-c4ccc(O)c(F)c4F)nn(C4CCCC4)c3c2)cc1` [Compound 55, (S)-3-(4-((1-cyclopentyl-3-(2,3-difluoro-4-hydroxyphenyl)-1H-indazol-6-yl)methoxy)phenyl)butanoic acid], the IC50 is more than 1 µM.

On to `COc1ccc(-c2nn(C3CCCC3)c3cc(COc4ccc([C@H](C)CC(=O)O)cc4)ccc23)cc1` [Compound 57, (R)-3-(4-((1-cyclopentyl-3-(4-methoxyphenyl)-1H-indazol-6-yl)methoxy)phenyl)butanoic acid], for which the IC50 was more than 1 µM.

In the case of `CC(CC(=O)O)c1ccc(OCc2ccc3c(-c4ccc(N)cc4)nn(C4CCCC4)c3c2)cc1` (stereo not drawn) [Compound 59, 3-(4-((3-(4-aminophenyl)-1-cyclopentyl-1H-indazol-6-yl)methoxy)phenyl)butanoic acid], the IC50 is more than 1 µM.

Consider `CC(=O)Nc1ccc(-c2nn(C3CCCC3)c3cc(COc4ccc(C(C)CC(=O)O)cc4)ccc23)cc1` (stereo not drawn) [Compound 60, 3-(4-((3-(4-acetamidophenyl)-1-cyclopentyl-1H-indazol-6-yl)methoxy)phenyl)butanoic acid], for which the IC50 is more than 1 µM.

As for `CC(=O)Nc1ccc(-c2nn(C3CCCC3)c3cc(COc4ccc(C(C)CC(=O)O)cc4)ccc23)cc1` (stereo not drawn) [Compound 61, 3-(4-((3-(4-acetamidophenyl)-1-cyclopentyl-1H-indazol-6-yl)methoxy)phenyl)butanoic acid], the IC50 was more than 1 µM.

As for `C[C@@H](CC(=O)O)c1ccc(OCc2cc(F)c3c(-c4cc(Cl)c(O)c(Cl)c4)nn(C4CCCC4)c3c2)cc1` [Compound 69, (S)-3-(4-((1-cyclopentyl-3-(3,5-dichloro-4-hydroxyphenyl)-4-fluoro-1H-indazol-6-yl)methoxy)phenyl)butanoic acid], the IC50 is less than 0.1 µM.

Take `CC(CC(=O)O)c1ccc(OCc2cnc3c(-c4ccc(O)cc4)nn(C4CCCC4)c3c2)cc1` (stereo not drawn) [Compound 72, 3-(4-((1-cyclopentyl-3-(4-hydroxyphenyl)-1H-pyrazolo[4,3-b]pyridin-6-yl)methoxy)phenyl)butanoic acid]: the IC50 is 0.1 to 1 µM.

As for `CC(CC(=O)O)c1ccc(OCc2cnc3c(-c4cc(Cl)c(O)c(Cl)c4)nn(C4CCCC4)c3c2)cc1` (stereo not drawn) [Compound 73, 3-(4-((1-cyclopentyl-3-(3,5-dichloro-4-hydroxyphenyl)-1H-pyrazolo[4,3-b]pyridin-6-yl)methoxy)phenyl)butanoic acid], the IC50 was 0.1 to 1 µM.

Consider `CC(CC(=O)O)c1ccc(OCc2cnc3c(-c4cc(F)c(O)c(F)c4)nn(C4CCCC4)c3c2)cc1` (stereo not drawn) [Compound 74, 3-(4-((1-cyclopentyl-3-(3,5-difluoro-4-hydroxyphenyl)-1H-pyrazolo[4,3-b]pyridin-6-yl)methoxy)phenyl)butanoic acid], for which the IC50 is 0.1 to 1 µM.

`CC(CC(=O)O)c1ccc(OCc2cnc3c(-c4ccc(O)c(Cl)c4)nn(C4CCCC4)c3c2)cc1` (stereo not drawn) [Compound 75, 3-(4-((3-(3-chloro-4-hydroxyphenyl)-1-cyclopentyl-1H-pyrazolo[4,3-b]pyridin-6-yl)methoxy)phenyl)butanoic acid]: the IC50 was in the range of 0.1 to 1 µM.

Still in this assay, the particulars now being: read-out: CMKLR1 activity in CHO cells (% inhibition at 10 µM), 10 µM compound, relative to calcium signal induced by 2.5 nM chemerin-9.
Consider `CC(CC(=O)O)c1ccc(OCc2ccc3c(-c4ccccc4)nn(C)c3c2)cc1` (stereo not drawn) [Compound 77, 3-(4-((1-methyl-3-phenyl-1H-indazol-6-yl)methoxy)phenyl)butanoic acid], for which the inhibition at 10 µM came out at 24%.

Turning to `CCCn1nc(-c2ccccc2)c2ccc(COc3ccc(C(C)CC(=O)O)cc3)cc21` (stereo not drawn) [Compound 79, 3-(4-((3-phenyl-1-propyl-1H-indazol-6-yl)methoxy)phenyl)butanoic acid], the inhibition at 10 µM is 60%.

Take `CC(C)Cn1nc(-c2ccccc2)c2ccc(COc3ccc(C(C)CC(=O)O)cc3)cc21` (stereo not drawn) [Compound 80, 3-(4-((1-isobutyl-3-phenyl-1H-indazol-6-yl)methoxy)phenyl)butanoic acid]: the inhibition at 10 µM worked out at 52%.

On to `CC(CC(=O)O)c1ccc(OCc2ccc3c(-c4ccccc4)nn(CC4CC4)c3c2)cc1` (stereo not drawn) [Compound 81, 3-(4-((1-(cyclopropylmethyl)-3-phenyl-1H-indazol-6-yl)methoxy)phenyl)butanoic acid], for which the inhibition at 10 µM turned out to be 35%.

For `CC(CC(=O)O)c1ccc(OCc2ccc3c(-c4ccccc4)nn(CC4CCCCC4)c3c2)cc1` (stereo not drawn) [Compound 83, 3-(4-((1-(cyclohexylmethyl)-3-phenyl-1H-indazol-6-yl)methoxy)phenyl)butanoic acid], the inhibition at 10 µM came out at 28%.

With `CC(CC(=O)O)c1ccc(OCc2ccc3c(-c4ccccc4)nn(Cc4ccccc4)c3c2)cc1` (stereo not drawn) [Compound 85], the inhibition at 10 µM came out at 23%.

(Values after EP4775568A1, “NOVEL COMPOUND AND USE THEREOF FOR TREATING PSORIASIS” (Gwangju Institute of Science and Technology, priority 2023, dated 2025).)
